Assay results published in patent US8138189B2, “Substituted benzene compounds as modulators of the glucocorticoid receptor” (Hoffman-La Roche Inc., priority 2009, dated 2012).

Each compound was assayed against T1, full length human recombinant glucocorticoid receptor (Homo sapiens, UniProt P04150) (assay: Glucocorticoid Receptor Binding Assay (fluorescence polarization competitor assay, Fluormone GS Far Red tracer)).
T1 construct: partially purified full length human recombinant glucocorticoid receptor; purchased Panvera/Invitrogen PV4302
T1 sequence (P04150 1-777): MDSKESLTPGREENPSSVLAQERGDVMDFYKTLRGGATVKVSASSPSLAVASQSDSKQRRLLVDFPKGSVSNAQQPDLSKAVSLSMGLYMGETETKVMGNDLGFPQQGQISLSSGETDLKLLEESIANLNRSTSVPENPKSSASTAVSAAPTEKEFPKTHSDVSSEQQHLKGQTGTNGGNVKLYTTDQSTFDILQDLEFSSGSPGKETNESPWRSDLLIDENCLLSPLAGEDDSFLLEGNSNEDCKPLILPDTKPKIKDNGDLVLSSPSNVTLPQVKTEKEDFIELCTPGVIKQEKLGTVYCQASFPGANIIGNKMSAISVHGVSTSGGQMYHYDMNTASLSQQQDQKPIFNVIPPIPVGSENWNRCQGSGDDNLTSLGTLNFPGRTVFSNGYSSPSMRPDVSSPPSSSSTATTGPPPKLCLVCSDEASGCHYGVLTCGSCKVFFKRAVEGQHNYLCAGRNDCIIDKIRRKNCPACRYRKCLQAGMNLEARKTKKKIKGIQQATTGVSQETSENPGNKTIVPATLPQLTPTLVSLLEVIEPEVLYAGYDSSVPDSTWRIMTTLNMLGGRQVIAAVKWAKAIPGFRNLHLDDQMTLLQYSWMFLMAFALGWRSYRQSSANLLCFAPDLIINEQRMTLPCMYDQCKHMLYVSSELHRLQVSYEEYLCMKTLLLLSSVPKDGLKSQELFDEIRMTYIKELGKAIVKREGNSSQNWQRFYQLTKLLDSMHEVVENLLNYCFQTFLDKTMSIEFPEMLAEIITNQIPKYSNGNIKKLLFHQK
In short: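 Partially purified full-length recombinant human GR with a stabilizing coactivator peptide was incubated with Fluormone GS Far Red tracer and serially diluted compound for 3 h at 22 °C in the dark, pH 7.4. Fluorescence polarization was read at 610-660 nm. IC50 came from sigmoidal fitting, and Ki from Cheng-Prusoff.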

Compound	Ki [nM]
C[C@H](c1cc(Oc2ncc(C(=O)O)cn2)ccc1Cl)[C@@](O)(c1ccnc(Cl)c1)C(F)(F)F (relative stereo) [Example 135, 2-{4-Chloro-3-[2-(2-chloro-pyridin-4-yl)-3,3,3-trifluoro-2-hydroxy-1-methyl-propyl]-phenoxy}-pyrimidine-5-carboxylic acid]	253
CC(c1ccc(Oc2ccc(C(=O)O)nc2)cc1Cl)C(O)(c1ccnc(Cl)c1)C(F)(F)F (stereo not drawn) [Example 81, 5-{3-Chloro-4-[2-(2-chloro-pyridin-4-yl)-3,3,3-trifluoro-2-hydroxy-1-methyl-propyl]-phenoxy}-pyridine-2-carboxylic acid]	26.5
C[C@H](c1ccc(C(=O)Nc2ccc(C(=O)O)cc2)cc1Cl)[C@@](O)(c1ccnc(Cl)c1)C(F)(F)F (stereo in doubt) [Example 26, 4-{3-Chloro-4-[2-(2-chloro-pyridin-4-yl)-3,3,3-trifluoro-2-hydroxy-1-methyl-propyl]-benzoylamino}-benzoic acid]	200
CC(c1ccc(NC(=O)c2ccc(C(=O)O)cc2)cc1Cl)C(O)(c1ccnc(Cl)c1)C(F)(F)F (stereo not drawn) [Example 69, N-{3-Chloro-4-[2-(2-chloro-pyridin-4-yl)-3,3,3-trifluoro-2-hydroxy-1-methyl-propyl]-phenyl}-terephthalamic acid]	116
COC(=O)C1(c2ccc(COc3ccc([C@H](C)[C@](O)(c4cnc5ccccc5c4)C(F)(F)F)c(Cl)c3)cc2)CC1 (stereo in doubt) [Example 142, 1-{4-[3-Chloro-4-(3,3,3-trifluoro-2-hydroxy-1-methyl-2-quinolin-3-yl-propyl)-phenoxymethyl]-phenyl}-cyclopropanecarboxylic acid methyl ester]	6.6
Cc1cc(C(O)(C(C)c2ccc(OCc3ccnc(C(=O)O)c3)cc2Cl)C(F)(F)F)ccn1 (stereo not drawn) [Example 102, 4-{3-Chloro-4-[3,3,3-trifluoro-2-hydroxy-1-methyl-2-(2-methyl-pyridin-4-yl)-propyl]-phenoxymethyl}-pyridine-2-carboxylic acid]	20.2
CCOC(=O)c1ccc(COc2ccc([C@@H](C)[C@@](O)(c3cnc(C)cn3)C(F)(F)F)c(Cl)c2)cc1 (racemic) [Example 1, 4-{3-Chloro-4-[3,3,3-trifluoro-2-hydroxy-1-methyl-2-(5-methyl-pyrazin-2-yl)-propyl]-phenoxymethyl}-benzoic acid ethyl ester]	76.6
CC(c1ccc(Oc2ncc(C(=O)O)cn2)cc1Cl)C(O)(c1ccnc(Cl)c1)C(F)(F)F (stereo not drawn) [Example 117, 2-{3-Chloro-4-[2-(2-chloro-pyridin-4-yl)-3,3,3-trifluoro-2-hydroxy-1-methyl-propyl]-phenoxy}-pyrimidine-5-carboxylic acid]	111
COc1cc(C(=O)O)ccc1COc1ccc(C(C)C(O)(c2ccncc2)C(F)(F)F)c(Cl)c1 (stereo not drawn) [Example 109, 4-[3-Chloro-4-(3,3,3-trifluoro-2-hydroxy-1-methyl-2-pyridin-4-yl-propyl)-phenoxymethyl]-3-methoxy-benzoic acid]	79.2
CC(c1ccc(Oc2ccc(C(=O)O)c(Cl)c2)cc1Cl)C(O)(c1ccnc(Cl)c1)C(F)(F)F (stereo not drawn) [Example 82, 2-Chloro-4-{3-chloro-4-[2-(2-chloro-pyridin-4-yl)-3,3,3-trifluoro-2-hydroxy-1-methyl-propyl]-phenoxy}-benzoic acid]	5.1
Cc1cnc(C(O)(C(C)c2ccc(OCCOc3ccc(C(=O)O)cc3)cc2Cl)C(F)(F)F)cn1 (stereo not drawn) [Example 10, 4-(2-{3-Chloro-4-[3,3,3-trifluoro-2-hydroxy-1-methyl-2-(5-methyl-pyrazin-2-yl)-propyl]-phenoxy}-ethoxy)-benzoic acid]	307

More lines, now with the values ahead:

Ki [nM]	Compound
412	C[C@@H](c1ccc(-c2ccc(CC(=O)O)cc2)cc1Cl)[C@](O)(c1ccc(=O)[nH]c1)C(F)(F)F (relative stereo) [Example 182, {3′-Chloro-4′-[3,3,3-trifluoro-2-hydroxy-1-methyl-2-(6-oxo-1,6-dihydro-pyridin-3-yl)-propyl]-biphenyl-4-yl}-acetic acid]
49.7	C[C@@H](c1ccc(-c2ccc(Cl)c(C(=O)O)c2)cc1Cl)[C@](O)(c1ccc(=O)n(C)c1)C(F)(F)F (stereo in doubt) [Example 170, 4,3′-Dichloro-4′-[3,3,3-trifluoro-2-hydroxy-1-methyl-2-(1-methyl-6-oxo-1,6-dihydro-pyridin-3-yl)-propyl]-biphenyl-3-carboxylic acid]
0.4	Cc1cc([C@@](O)([C@@H](C)c2ccc(Oc3ccc(C(=O)O)c(F)c3)cc2Cl)C(F)(F)F)cn(C)c1=O (racemic) [Example 204, 4-{3-Chloro-4-[2-(1,5-dimethyl-6-oxo-1,6-dihydro-pyridin-3-yl)-3,3,3-trifluoro-2-hydroxy-1-methyl-propyl]-phenoxy}-2-fluoro-benzoic acid]
2.3	C[C@H](c1ccc(Oc2ccc(C(=O)O)c(F)c2)c(Cl)c1Cl)[C@@](O)(c1ccc(=O)n(C)c1)C(F)(F)F (stereo in doubt) [Example 200, 4-{2,3-Dichloro-4-[3,3,3-trifluoro-2-hydroxy-1-methyl-2-(1-methyl-6-oxo-1,6-dihydro-pyridin-3-yl)-propyl]-phenoxy}-2-fluoro-benzoic acid]
0.4	Cc1cc([C@@](O)([C@@H](C)c2ccc(Oc3ccc(C(=O)O)c(Cl)c3)cc2Cl)C(F)(F)F)cn(C)c1=O (relative stereo) [Example 208, 2-Chloro-4-{3-chloro-4-[2-(1,5-dimethyl-6-oxo-1,6-dihydro-pyridin-3-yl)-3,3,3-trifluoro-2-hydroxy-1-methyl-propyl]-phenoxy}-benzoic acid]
3.6	Cc1nc(Oc2ccc([C@H](C)[C@](O)(c3cc(C)c(=O)n(C)c3)C(F)(F)F)c(Cl)c2)ccc1C(=O)O (stereo in doubt) [Example 255, 6-{3-Chloro-4-[2-(1,5-dimethyl-6-oxo-1,6-dihydro-pyridin-3-yl)-3,3,3-trifluoro-2-hydroxy-1-methyl-propyl]-phenoxy}-2-methyl-nicotinic acid]
3.8	C[C@@H](c1ccc(Oc2cc(C(F)(F)F)c(C(=O)O)cn2)cc1Cl)[C@](O)(c1cc(Cl)c(=O)n(C)c1)C(F)(F)F (stereo in doubt) [Example 224, 6-{3-Chloro-4-[2-(5-chloro-1-methyl-6-oxo-1,6-dihydro-pyridin-3-yl)-3,3,3-trifluoro-2-hydroxy-1-methyl-propyl]-phenoxy}-4-trifluoromethyl-nicotinic acid]
1.9	C[C@@H](c1ccc(OCc2ccc(CC(=O)O)cc2)cc1Cl)[C@](O)(c1cnc2ccccc2c1)C(F)(F)F (relative stereo) [Example 145, {4-[3-Chloro-4-(3,3,3-trifluoro-2-hydroxy-1-methyl-2-quinolin-3-yl-propyl)-phenoxymethyl]-phenyl}-acetic acid]
12.1	CCn1cc([C@@](O)([C@@H](C)c2ccc(-c3ccc(C(=O)OC)c(F)c3)cc2Cl)C(F)(F)F)ccc1=O (stereo in doubt) [Example 185, 3′-Chloro-4′-[2-(1-ethyl-6-oxo-1,6-dihydropyridin-3-yl)-3,3,3-trifluoro-2-hydroxy-1-methyl-propyl]-3-fluoro-biphenyl-4-carboxylic acid methyl ester]
14.6	C[C@H](c1ccc(Oc2ccc(C(=O)O)c(Cl)c2)cc1Cl)[C@@](O)(c1ccc(C#N)n1C)C(F)(F)F (stereo in doubt) [Example 232, 2-Chloro-4-{3-chloro-4-[2-(5-cyano-1-methyl-1H-pyrrol-2-yl)-3,3,3-trifluoro-2-hydroxy-1-methyl-propyl]-phenoxy}-benzoic acid]
0.2	Cc1cc([C@@](O)([C@@H](C)c2ccc(Oc3ccc(C(=O)O)cc3F)cc2Cl)C(F)(F)F)cn(C)c1=O (relative stereo) [Example 216, 4-{3-Chloro-4-[2-(1,5-dimethyl-6-oxo-1,6-dihydro-pyridin-3-yl)-3,3,3-trifluoro-2-hydroxy-1-methyl-propyl]-phenoxy}-3-fluoro-benzoic acid]
24.4	C[C@H](c1ccc(-c2ccc(F)c(C(=O)O)c2)cc1Cl)[C@@](O)(c1cnc2ccccc2c1)C(F)(F)F (relative stereo) [Example 226, 3′-Chloro-4-fluoro-4′-(3,3,3-trifluoro-2-hydroxy-1-methyl-2-quinolin-3-yl-propyl)-biphenyl-3-carboxylic acid]
1.3	C[C@@H](c1ccc(OCc2ccc(C(=O)O)cc2)cc1Cl)[C@](O)(c1cccc2cnccc12)C(F)(F)F (stereo in doubt) [Example 148, 4-[3-Chloro-4-(3,3,3-trifluoro-2-hydroxy-2-isoquinolin-5-yl-1-methyl-propyl)-phenoxymethyl]-benzoic acid]
